# Test results as given in US20260262641A1 (priority 2023, published 2026).
# Tests used:
# Type in all cases: in vivo
# [1] = tested on: ground pearl (Margarodes spp); assay: Field trial in kikuyu turf, control of ground pearl, Sydney (Example 2)
# Experimental: A field trial was conducted in kikuyu turf, to evaluate fenpyroximate for control of ground pearl (Margarodes spp). The trial was located at Sydney University, New South Wales (−33.888, 151.188), in an area with a known infestation of ground pearl.
# All treatments were applied using a hand boom fitted with XR11004 nozzles, in a spray volume of 430 L/ha.
# The ground pearl density by species was assessed by sampling 20 cores per plot and recording the number of eggs and adults, and Normalized Difference Vegetation Index (NDVI) was assessed 56 days after the third application using a Greenseeker.
# (§1) All data was statistically analyzed using analysis of variance and Fisher's protected least significant different test (Fishers LSD). The level of significance for all tests was P<0.05.
# [2] = tested on: couch mite (Aceria cynodoniensis); assay: Field trial in Santa Ana couch turfgrass, control of couch mite (Example 3)
# Experimental: A field trial was conducted in Santa Ana couch turfgrass, to evaluate fenpyroximate for control of couch mite (Aceria cynodoniensis). The trial was located at Terrey Hills Golf and Country Club, New South Wales (−33.668, 151.217). […] All treatments were applied using a hand boom fitted with XR11004 nozzles and in a spray volume of 430 L/ha.
# The incidence of couch mite damage, to the terminal growth point (known as witches' broom) was assessed 42 days after the second application. Turf biomass and vigor were assessed at the same timing on a 0 to 10 rating scale, along with NDVI using a Greenseeker.
# as §1
# [3] = tested on: ground pearl (Margarodes spp); assay: Field trial in kikuyu turf, control of ground pearl, Robina (Example 6)
# Experimental: A field trial was conducted in kikuyu turf, to evaluate fenpyroximate for control of ground pearl (Margarodes spp). The trial was located at Robina, Queensland (−28.069442, 153.401817), in an area with a known infestation of ground pearl.
# All treatments were applied using a hand boom fitted with XC08 nozzles, in a spray volume of 443 L/ha.
# The ground pearl density by species was assessed prior to the first application and again 21 days after the third application by sampling 20 cores per plot and recording the number of eggs and adults. Turf vigor was assessed on a 0 to 10 rating scale (0=dead; 10=best quality/color) prior to the first application and 42 days after the third application.
# as §1
# [4] = tested on: couch mite (Aceria cynodoniensis); assay: Field trial in hybrid couch turfgrass, control of couch mite (Example 7)
# Experimental: A field trial was conducted in hybrid couch turfgrass, to evaluate fenpyroximate for control of couch mite (Aceria cynodoniensis). The trial was located at Oxley Golf Club, Oxley Queensland (−27.57077, 152.99762). […] All treatments were applied using a hand boom fitted with XR11004 nozzles and in a spray volume of 430 L/ha.
# The severity of couch mite damage to the terminal growth point (known as witches' broom) was assessed pre-spraying, then at 42 and 56 days after the second application. The density of couch mite was assessed pre-spraying and at 28 days after the second application. Turf quality was assessed on a 0 to 9 rating scale (0=dead; 9=best quality/color) prior to the first application and 14 days after the second application.
# as §1
# [5] = tested on: ground pearl (Margarodes spp); assay: Field trial in kikuyu turf, control of ground pearl, Robina (Example 6); conditions: 56 DAA3 (head); 0=dead; 10=best quality/color; product rate mL/ha: Meridian 1200, Kohinor 350 SC 1500, Fenpyroximate 50 SC 4000; each with Stamina B 20000
# [6] = versus untreated, P<0.05, with PE 6200
# [7] = Pre-spray (baseline), witches' broom
# [8] = 21 days after third application, product rate mL or g/ha: Meridian 1200, Kohinor 350 SC 1500, Fenpyroximate 50 SC 4000 (200 g ai/ha), each with Stamina B 20000
# [9] = Pre-spray (baseline), 20 cores per plot
compound,measurement,setting,value
Cc1nn(C)c(Oc2ccccc2)c1C=NOCc1ccc(C(=O)OC(C)(C)C)cc1 [Fenpyroximate],"NDVI, Pre-spray","[1]; Pre-spray (baseline), kikuyu turf, Greenseeker",8.0
same,"Ground pearls/plot, Adults, Pre-spray",[1]; sc,4.0 a ground pearls/plot
same,"Ground pearls/plot, Eggs, Pre-spray",[1]; sc,10.3 a ground pearls/plot
same,"Ground pearls/plot, Adults, 56 DAA3","[1]; sc, 200 g/ha, 1344 h",12.8 a ground pearls/plot
same,"Ground pearls/plot, Eggs, 56 DAA3","[1]; sc, 200 g/ha, 1344 h",5.3 a ground pearls/plot
same,"NDVI, 56 DAA3","[1]; sc, 1344 h",7.6
same,turf color and quality / NDVI (in words),"[1]; versus untreated, P<0.05",significantly improved
same,density of ground pearl adults (in words),[1]; [6],significantly reduced
same,density of ground pearl eggs (in words),[1]; [6],significantly reduced
same,"Biomass and vigor (0-10), 42 DAA2","[2]; 42 DAA2, 0 to 10 rating scale, product rate mL/ha: Prophesy 500, Thumper 2000 (+ BS 1000 0.25% v/v), Fenpyroximate 50 SC 4000",4.8
same,"NDVI, 42 DAA2","[2]; 42 DAA2, Greenseeker, product rate mL/ha: Prophesy 500, Thumper 2000 (+ BS 1000 0.25% v/v), Fenpyroximate 50 SC 4000",0.63
same,"% Incidence mite damage, 42 DAA2","[2]; 42 days after second application, product rate mL/ha: Prophesy 500, Thumper 2000 (+ BS 1000 0.25% v/v), Fenpyroximate 50 SC 4000 (200 g ai/ha)",47.0%
same,"Biomass and vigor (0-10), Pre-spray","[2]; Pre-spray (baseline), 0 to 10 rating scale",4.1 a
same,"NDVI, Pre-spray","[2]; Pre-spray (baseline), Greenseeker",0.55 a
same,"% Incidence mite damage, Pre-spray",[2]; [7],95.8 a %
same,incidence of couch mite damage (in words),"[2]; versus untreated, P<0.05",significantly reduced
same,turf biomass and vigor and NDVI (in words),"[2]; versus untreated, P<0.05",significantly improved
same,"Ground pearls/plot, Adults, 21 DAA3",[3]; [8],1.0 ab ground pearls/plot
same,"Ground pearls/plot, Eggs, 21 DAA3",[3]; [8],1.0 abc ground pearls/plot
same,"Turf vigor (0-10), Pre-spray","[3]; Pre-spray (baseline), 0=dead, 10=best quality/color",5.1
same,"Ground pearls/plot, Adults, Pre-spray",[3]; [9],6.7 ground pearls/plot
same,"Ground pearls/plot, Eggs, Pre-spray",[3]; [9],4.0 ground pearls/plot
same,density of ground pearl eggs and adults (in words),"[3]; versus untreated, P<0.05",significantly reduced
same,turf vigor (in words),"[3]; versus untreated, P<0.05",significantly improved
same,"Couch mites/3 terminals, 28 DAA2","[4]; 28 DAA2, product rate mL/ha: Abazine Miticide 1350, Fenpyroximate 50 SC 2000",45.8 mites/3 terminals
same,"Turf quality (0-9), 14 DAA2","[4]; 14 days after second application, 0=dead, 9=best quality/color, product rate mL/ha: Abazine Miticide 1350, Fenpyroximate 50 SC 2000",5.1
same,"% Severity mite damage, 42 DAA2","[4]; 42 days after second application, product rate mL/ha: Abazine Miticide 1350, Fenpyroximate 50 SC 2000 (100 g ai/ha)",7.0 a %
same,"% Severity mite damage, 56 DAA2","[4]; 56 days after second application, product rate mL/ha: Abazine Miticide 1350, Fenpyroximate 50 SC 2000 (100 g ai/ha)",6.5 a %
same,"Couch mites/3 terminals, Pre-spray",[4]; Pre-spray (baseline),130.5 mites/3 terminals
same,"Turf quality (0-9), Pre-spray","[4]; Pre-spray (baseline), 0=dead, 9=best quality/color",4.5
same,"% Severity mite damage, Pre-spray",[4]; [7],40.0%
same,density of couch mite (in words),"[4]; versus untreated, P<0.05",significantly both reduced
same,turf quality (in words),"[4]; versus untreated, P<0.05",improved
same,"Turf vigor (0-10), 56 DAA3",[5],6.2 a
